According to patent US10160762B2, “6-alkyl dihydropyrazolopyrimidinone compounds as PDE2 inhibitors” (Merck Sharp & Dohme Corp., priority 2015, dated 2018):

Target: T1, human PDE2A1 (Homo sapiens, UniProt O00408)
T1 construct: GST; purchased BPS Bioscience (San Diego, Calif.) 60020; host or cells: insect cells
Test: IMAP FP PDE assay, human PDE2A1
Type: biochemical
Conditions: Lab B; read-out: Human PDE2 Ki (nM) Lab B
How it was run: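 FP (IMAP) read after 60 min room-temperature reaction of insect-cell GST-human PDE2A1 with 50 nM FAM-cAMP plus 1000 nM cGMP (pH 7.2 Tris, Mg2+, DTT). Compounds titrated 3-fold over ten points. Apparent Ki derived assuming KM of 10,000 nM; enzyme at 20% substrate turnover.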

T1 sequence (O00408 1-920 isoform O00408-2): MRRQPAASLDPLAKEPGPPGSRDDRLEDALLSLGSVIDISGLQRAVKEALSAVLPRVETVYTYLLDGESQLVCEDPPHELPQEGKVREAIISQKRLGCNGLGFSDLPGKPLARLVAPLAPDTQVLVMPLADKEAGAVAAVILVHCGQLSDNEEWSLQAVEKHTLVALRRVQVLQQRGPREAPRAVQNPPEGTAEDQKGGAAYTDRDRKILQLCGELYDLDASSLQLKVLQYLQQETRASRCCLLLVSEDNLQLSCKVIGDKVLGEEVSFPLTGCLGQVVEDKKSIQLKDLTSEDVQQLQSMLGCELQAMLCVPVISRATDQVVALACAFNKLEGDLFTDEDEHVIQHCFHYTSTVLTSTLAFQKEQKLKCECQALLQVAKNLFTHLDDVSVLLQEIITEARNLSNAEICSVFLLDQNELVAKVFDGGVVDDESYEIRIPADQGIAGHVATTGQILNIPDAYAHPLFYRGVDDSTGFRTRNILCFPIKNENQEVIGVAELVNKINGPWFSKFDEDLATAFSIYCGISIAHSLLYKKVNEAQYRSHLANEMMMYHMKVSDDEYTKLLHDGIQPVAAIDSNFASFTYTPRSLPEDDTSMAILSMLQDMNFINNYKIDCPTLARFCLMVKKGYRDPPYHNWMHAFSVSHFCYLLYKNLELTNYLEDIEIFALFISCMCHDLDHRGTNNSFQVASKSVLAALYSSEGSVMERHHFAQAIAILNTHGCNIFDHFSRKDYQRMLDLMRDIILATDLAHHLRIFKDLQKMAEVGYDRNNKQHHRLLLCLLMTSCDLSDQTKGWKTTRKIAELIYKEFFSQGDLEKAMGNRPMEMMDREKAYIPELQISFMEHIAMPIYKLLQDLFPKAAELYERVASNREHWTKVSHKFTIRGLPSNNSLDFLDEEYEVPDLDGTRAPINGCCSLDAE

Structure (SMILES) | Ki
Cc1nc2c(c(CO)nn2C(C)c2ccc(C3(C)CC3)cc2)c(=O)[nH]1 (single isomer, unassigned) [Example 144, (S)- or (R)-3-(Hydroxymethyl)-6-methyl-1-(1-(4-(1-methylcyclopropyl)phenyl)ethyl)-1H-pyrazolo[3,4-d]pyrimidin-4(5H)-one] | 0.59 nM
Cc1nc2c(c(C(F)F)nn2C(C)c2ccc(C(F)(F)F)nc2)c(=O)[nH]1 (single isomer, unassigned) [Example 195] | ~1670 nM
Cc1nc2c(c(CO)nn2C(C)[C@H]2CC[C@H](C(F)(F)F)CC2)c(=O)[nH]1 (single isomer, unassigned) [Example 124, (R)- or (S)-3-(Hydroxymethyl)-6-methyl-1-((trans)-4-(trifluoromethyl)cyclohexyl) ethyl)-1H-pyrazolo[3,4-d]-pyrimidin-4(5H)-one] | 521 nM
Cc1nc2c(c(CC(O)C(F)(F)F)nn2C(C)c2ccc(C(F)(F)F)cc2)c(=O)[nH]1 (single isomer, unassigned) [Example 239] | ~2820 nM
CC(=O)NCc1nn(C(C)c2ccc(C(F)(F)F)cc2)c2nc(C)[nH]c(=O)c12 (single isomer, unassigned) [Example 277] | ~1300 nM
CC(=O)c1ccc(C(C)n2nc(CO)c3c(=O)[nH]c(C)nc32)cc1 (single isomer, unassigned) [Example 290] | > 2960 nM
Cc1nc2c(c(Br)nn2C(C)c2ccc(C(F)(F)F)cc2)c(=O)[nH]1 (single isomer, unassigned) [Example 324] | 465 nM
Cc1nc2c(c(CO)nn2C(C)c2ccc(C(F)(F)F)cc2I)c(=O)[nH]1 (single isomer, unassigned) [Example 141, (S)- or (R)-3-(Hydroxymethyl)-1-(1-(2-iodo-4-(trifluoromethyl-)phenyl)ethyl)-6-methyl-1,5-dihydro-4H-pyrazolo[3,4-d]pyrimidin-4-one] | 12 nM
Cc1nc2c(c(CO)nn2C(C)c2ccc(C(F)(F)F)c(I)c2)c(=O)[nH]1 (single isomer, unassigned) [Example 138, (R)- or (S)-3-(Hydroxymethyl)-1-(1-(3-iodo-4-(trifluoromethyl-)phenyl)ethyl)-6-methyl-1,5-dihydro-4H-pyrazolo[3,4-d]pyrimidin-4-one] | > 2960 nM
Cc1nc2c(c(C(=O)N(C)C)nn2C(C)c2ccc(C(F)(F)F)cc2)c(=O)[nH]1 (single isomer, unassigned) [Example 267, (S)- or (R)-N,N,6-Trimethyl-4-oxo-1-(1-(4-(trifluoromethyl)phenyl)ethyl)-4,5-dihydro-1H-pyrazolo[3,4-d]pyrimidine-3-carboxamide] | > 2960 nM
Cc1nc2c(c(CO)nn2C(C)[C@H]2CC[C@H](C(F)(F)F)CC2)c(=O)[nH]1 (single isomer, unassigned) [Example 125, (S)- or (R)-3-(Hydroxymethyl)-6-methyl-1-((trans)-4-(trifluoro-methyl)cyclohexyl)ethyl)-1H-pyrazolo[3,4-d]pyrimidin-4(5H)-one] | 26 nM
CC(c1ccc(C(F)(F)F)cc1)n1nc(C#N)c2c(=O)[nH]c(CC3CCCC3)nc21 (single isomer, unassigned) [Example 350] | 62 nM
Cc1nc2c(c(CO)nn2C(C)c2c(F)cc(C(F)(F)F)cc2F)c(=O)[nH]1 (single isomer, unassigned) [Example 136] | 5 nM
Cc1nc2c(c(C(F)F)nn2C(C)c2ccc(OC(F)(F)F)cc2)c(=O)[nH]1 (single isomer, unassigned) [Example 177, (R)- or (S)-3-(Difluoromethyl)-6-methyl-1-(1-(4-(trifluoromethoxy)phenyl)ethyl)-1H-pyrazolo[3,4-d]pyrimidin-4(5H)-one] | 61 nM
Cc1nc2c(c(C(=O)O)nn2[C@@H](C)c2ccc(C(F)(F)F)cc2)c(=O)[nH]1 [Example 323, (S)-6-Methyl-4-oxo-1-(1-(4-(trifluoromethyl)phenyl)ethyl)-4,5-dihydro-1H-pyrazolo[3,4-d]pyrimidine-3-carboxylic acid] | 798 nM
Cc1nc2c(c(CO)nn2C(CC(F)(F)F)c2ccc(C(F)(F)F)cc2)c(=O)[nH]1 (single isomer, unassigned) [Example 96, (R)- or (S)-3-(Hydroxymethyl)-6-methyl-1-(3,3,3-trifluoro-1-(4-(trifluoromethyl)phenyl)propyl)-1H-pyrazolo[3,4-d]pyrimidin-4(5H)-one] | 16 nM
CC(c1ccc(S(F)(F)(F)(F)F)cc1)n1nc(CO)c2c(=O)[nH]c(C3CC3)nc21 (single isomer, unassigned) [Example 316, (S)- or (R)-6-Cyclopropyl-3-(hydroxymethyl)-1-{1-[4-(pentafluoro-sulfanyl)-phenyl]ethyl}-1,5-dihydro-4H-pyrazolo[3,4-d]pyrimidin-4-one] | 72 nM

Structure (SMILES) | Ki
Cc1nc2c(c(CC(F)(F)F)nn2C(C)c2ccc(OC(F)(F)F)cc2)c(=O)[nH]1 (single isomer, unassigned) [Example 67, (S)- or (R)-6-Methyl-3-(2,2,2-trifluoroethyl)-1-(1-(4-(trifluoromethoxy)phenyl)ethyl)-1H-pyrazolo[3,4-d]pyrimidin-4(5H)-one] | 6.7 nM
Cc1nc2c(c(C(=O)N3CCOCC3)nn2C(C)c2ccc(C(F)(F)F)cc2)c(=O)[nH]1 (single isomer, unassigned) [Example 270, (R)- or (S)-6-Methyl-3-(morpholine-4-carbonyl)-1-(1-(4-(trifluoromethyl)phenyl)ethyl)-1H-pyrazolo[3,4-d]pyrimidin-4(5H)-one] | > 2960 nM
Cc1nc2c(c(CO)nn2C(C)c2ccc(OC(F)F)cc2)c(=O)[nH]1 (single isomer, unassigned) [Example 20, (R)- or (S)-1-(1-(4-(Difluoromethoxy)phenyl)ethyl)-3-(hydroxymethyl)-6-methyl-1H-pyrazolo[3,4-d]pyrimidin-4(5H)-one] | 305 nM
Cc1nc2c(c(C(F)F)nn2C2(c3ccc(C(F)(F)F)cc3)COC2)c(=O)[nH]1 [Example 163, 3-(Difluoromethyl)-6-methyl-1-(3-(4-(trifluoromethyl)phenyl)oxetan-3-yl)-1H-pyrazolo[3,4-d]pyrimidin-4(5H)-one] | 9.5 nM
CC(=O)c1ccc(C(C)n2nc(CO)c3c(=O)[nH]c(C)nc32)cc1 (single isomer, unassigned) [Example 291] | 104 nM
CC(=O)Nc1nn(C(C)c2ccc(C(F)(F)F)cc2)c2nc(C)[nH]c(=O)c12 (single isomer, unassigned) [Example 259] | ~2120 nM
Cc1nc2c(c(C(F)(F)F)nn2C(C)c2ccc(C(F)(F)F)cc2)c(=O)[nH]1 (single isomer, unassigned) [Example 69, (S)- or-(R)-6-Methyl-3-(trifluoromethyl)-1-(1-(4-(trifluoromethyl)phenyl)ethyl)-1H-pyrazolo[3,4-d]pyrimidin-4(5H)-one] | 713 nM
Cc1nc2c(c(CC(F)(F)F)nn2C(C)c2ccc(C(F)(F)F)cc2)c(=O)[nH]1 (single isomer, unassigned) [Example 65, (S)- or (R)-6-Methyl-3-(2,2,2-trifluoroethyl)-1-(1-(4-(trifluoromethyl)phenyl)ethyl)-1H-pyrazolo[3,4-d]pyrimidin-4(5H)-one] | 5 nM
Cc1nc2c(c(CO)nn2C(C)c2ccc(C(F)(F)C(F)(F)F)cc2)c(=O)[nH]1 (single isomer, unassigned) [Example 98, (R)- or (S)-3-(Hydroxymethyl)-6-methyl-1-(1-(4-(perfluoroethyl)phenyl)ethyl)-1H-pyrazolo[3,4-d]pyrimidin-4(5H)-one] | 591 nM
Cc1nc2c(c(CO)nn2C(C)c2ccc(OC(F)F)cc2F)c(=O)[nH]1 (single isomer, unassigned) [Example 119, (S)- or (R)-1-(1-(4-(Difluoromethoxy)-2-fluorophenypethyl)-3-(hydroxymethyl)-6-methyl-1H-pyrazolo[3,4-d]pyrimidin-4(5H)-one] | 2.7 nM
Cc1nc2c(c(CO)nn2C(C)c2ccc(C(F)(F)F)s2)c(=O)[nH]1 (single isomer, unassigned) [Example 156, (S)- or (R)-3-(Hydroxymethyl)-6-methyl-1-(1-(5-(trifluoromethyl)thiophen-2-yl)ethyl)-1H-pyrazolo[3,4-d]pyrimidin-4(5H)-one] | 8.5 nM
Cc1nc2c(c(CO)nn2C(C)c2ccc(C(F)F)cc2)c(=O)[nH]1 (single isomer, unassigned) [Example 110, (R)- or (S)-1-(1-(4-(Difluoromethyl)phenyl)ethyl)-3-(hydroxymethyl)-6-methyl-1H-pyrazolo[3,4-d]pyrimidin-4(5H)-one] | 1070 nM
Cc1nc2c(c(CO)nn2C(C)c2ccc(CC(F)(F)F)cc2)c(=O)[nH]1 (single isomer, unassigned) [Example 123, (S) or (R)-3-(Hydroxymethyl)-6-methyl-1-(1-(4-(2,2,2-trifluoroethyl)phenyl)ethyl)-1H-pyrazolo[3,4-d]pyrimidin-4(5H)-one] | 2.6 nM
Cc1nc2c(c(CC(C)O)nn2C(C)c2ccc(C(F)(F)F)cc2)c(=O)[nH]1 (single isomer, unassigned) [Example 245] | 72 nM
Cc1nc2c(c(-c3nnco3)nn2C(C)c2ccc(C(F)(F)F)cc2)c(=O)[nH]1 (single isomer, unassigned) [Example 262] | 395 nM
Cc1nc2c(c(CO)nn2C(C)c2ccc(C(F)(F)F)c(C)c2)c(=O)[nH]1 (single isomer, unassigned) [Example 106, (R)- or (S)-3-(Hydroxymethyl)-6-methyl-1-(1-(3-methyl-4-(trifluoromethyl)phenyl)ethyl)-1H-pyrazolo[3,4-d]pyrimidin-4(5H)-one] | 633 nM
Cc1nc2c(c(CO)nn2C(C)c2ccc(CC(F)(F)F)cc2)c(=O)[nH]1 (single isomer, unassigned) [Example 122, (R)- or (S)-3-(Hydroxymethyl)-6-methyl-1-(1-(4-(2,2,2-trifluoroethyl)phenyl)ethyl)-1H-pyrazolo[3,4-d]pyrimidin-4(5H)-one] | 194 nM
